One may read the EC50 as the concentration at which the effect is half-maximal.

Our source for the EC50 values is patent US20250221966A1, “RXFP1 AGONISTS” (BRISTOL-MYERS SQUIBB COMPANY, priority 2021, published 2025).

The target of the experiment is T1, human RXFP1 (Homo sapiens, UniProt Q9HBX9).
T1 construct: expressed in transfected cells
T1 sequence (Q9HBX9 1-757): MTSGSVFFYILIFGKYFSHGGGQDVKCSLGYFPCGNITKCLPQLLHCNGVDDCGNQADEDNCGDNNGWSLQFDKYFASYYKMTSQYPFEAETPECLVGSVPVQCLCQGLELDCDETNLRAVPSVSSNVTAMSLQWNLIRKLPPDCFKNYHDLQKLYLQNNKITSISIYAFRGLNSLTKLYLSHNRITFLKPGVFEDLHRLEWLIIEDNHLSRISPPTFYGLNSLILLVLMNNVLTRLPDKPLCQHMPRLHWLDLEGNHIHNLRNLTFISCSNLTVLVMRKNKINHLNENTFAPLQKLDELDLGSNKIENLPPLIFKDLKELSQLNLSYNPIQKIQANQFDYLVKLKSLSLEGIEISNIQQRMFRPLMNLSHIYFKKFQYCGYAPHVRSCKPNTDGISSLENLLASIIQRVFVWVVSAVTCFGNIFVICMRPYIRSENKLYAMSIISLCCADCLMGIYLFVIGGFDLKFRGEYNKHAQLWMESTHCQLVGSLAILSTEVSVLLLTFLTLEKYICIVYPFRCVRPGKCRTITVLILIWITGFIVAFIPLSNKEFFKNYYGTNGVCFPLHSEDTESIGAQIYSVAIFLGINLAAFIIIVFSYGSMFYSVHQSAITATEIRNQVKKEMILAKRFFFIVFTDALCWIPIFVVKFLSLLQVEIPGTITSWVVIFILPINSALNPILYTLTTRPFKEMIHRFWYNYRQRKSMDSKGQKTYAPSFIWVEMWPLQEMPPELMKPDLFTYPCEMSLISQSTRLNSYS
Kind of experiment: RXFP1 cAMP assay (hRXFP1 HEK293 cAMP assay, HTRF). Format: cell-based. To be noted: HEK293 cells stably expressing human RXFP1, 30 min at room temperature, read-out: cAMP hRXFP1 HEK293 Assay EC50. As to the method: RXFP1 Cyclic Adenosine Monophosphate (cAMP) Assays. […] Cells were dissociated and suspended in assay buffer. The assay buffer was HBSS buffer (with calcium and magnesium) containing 20 mM HEPES, 0.05% BSA, and 0.5 mM IBMX. Cells (3000 cells per well, except 1500 cell per well for HEK293 cells stably expressing human RXFP1) were added to 384-well Proxiplates (Perkin-Elmer). Cells were immediately treated with test compounds in DMSO (2% final) at final concentrations in the range of 0.010 nM to 50 μM. Cells were incubated for 30 min at room temperature. The level of intracellular cAMP was determined using the HTRF HiRange cAMP assay reagent kit (Cisbio) according to manufacturer's instructions. Solutions of cryptate conjugated anti-cAMP and d2 fluorophore-labelled cAMP were made in a supplied lysis buffer separately. Upon completion of the reaction, the cells were lysed with equal volume of the d2-cAMP solution and anti-cAMP solution. […] The potency and activity of a compound to […] cAMP production was then determined by fitting to a 4-parametric logistic equation from a plot of cAMP level versus compound concentrations.
On to `COc1ccc(C2=NOC(C3(O)CCCCC3)C2)cc1C(=O)N[C@H]1[C@@H](C(=O)Nc2ccc(F)c(C(F)(F)F)c2)[C@H]2CC[C@@H]1/C2=C\C1CC1` (single isomer, unassigned) [compound 549], for which the EC50 worked out at 33 nM.
In the case of `COc1ccc(C2=NOC(C(C)O)C2)cc1C(=O)N[C@H]1[C@@H](C(=O)Nc2ccc(F)c(C(F)(F)F)c2)[C@H]2CC[C@@H]1/C2=C\C1CC1` (single isomer, unassigned) [compound 554], the EC50 was 37.6 nM.
For the molecule `CN(C)c1c(Cl)cc(C2=NOC3COCC23)cc1C(=O)N[C@H]1[C@@H](C(=O)Nc2ccc(F)c(C(F)(F)F)c2)[C@H]2CC[C@@H]1/C2=C\C(F)(F)F` (single isomer, unassigned) [compound 556], the EC50 was found to be 41.7 nM.
With `COCCOC1(C2CC(c3ccc(OC)c(C(=O)N[C@H]4[C@@H](C(=O)Nc5ccc(F)c(C(F)(F)F)c5)[C@H]5CC[C@@H]4/C5=C\C4CC4)c3)=NO2)CC1` (single isomer, unassigned) [compound 558], the EC50 is 44.3 nM.
The result for `COc1ccc(C2=NOC(C)(CO)C2)cc1C(=O)N[C@H]1[C@@H](C(=O)Nc2ccc(F)c(C(F)(F)F)c2)[C@H]2CC[C@@H]1C2=CC1CC1` (single isomer, unassigned) [compound 571] reads 65.3 nM; that for `COc1ccc(C2=NOC(C(C)(C)O)C2)cc1C(=O)N[C@H]1[C@@H](C(=O)Nc2ccc(F)c(C(F)(F)F)c2)[C@H]2CC[C@@H]1/C2=C\C1CC1` (single isomer, unassigned) [compound 573], 67.4 nM; that for `COc1ccc(C2=NO[C@H]3[C@@H]2CC[C@@H]3O)cc1C(=O)N[C@H]1[C@@H](C(=O)Nc2ccc(F)c(C(F)(F)F)c2)[C@H]2CC[C@@H]1/C2=C\C1CC1` (single isomer, unassigned) [compound 574], 67.8 nM.
The result for `COc1ccc(C2=NOC3CC(C(C)(C)O)CC23)cc1C(=O)N[C@H]1[C@@H](C(=O)Nc2ccc(F)c(C(F)(F)F)c2)[C@H]2CC[C@@H]1/C2=C\C1CC1` (single isomer, unassigned) [compound 579] reads 71.6 nM; that for `COc1ccc(C2=NO[C@@H]3[C@H](O)CC[C@H]23)cc1C(=O)N[C@H]1[C@@H](C(=O)Nc2ccc(F)c(C(F)(F)F)c2)[C@H]2CC[C@@H]1/C2=C\C1CC1` (single isomer, unassigned) [compound 583], 74.9 nM.
As for `COc1ccc(C2=NOC3CC(C(N)=O)CC23)cc1C(=O)N[C@H]1[C@@H](C(=O)Nc2ccc(F)c(C(F)(F)F)c2)[C@H]2CC[C@@H]1/C2=C\C1CC1` (single isomer, unassigned) [compound 587], the 50% effective concentration (EC50) came out at 80.8 nM.
Turning to `COc1ccc(C2=NOC(C(C)O)C2)cc1C(=O)N[C@H]1[C@@H](C(=O)Nc2ccc(F)c(C(F)(F)F)c2)[C@H]2CC[C@@H]1/C2=C\C1CC1` (single isomer, unassigned) [compound 595], the EC50 turned out to be 92.7 nM.
The result for `COc1ccc(C2=NOC(C(C)O)C2)cc1C(=O)N[C@H]1[C@@H](C(=O)Nc2ccc(F)c(C(F)(F)F)c2)[C@H]2CC[C@@H]1/C2=C\C1CC1` (single isomer, unassigned) [compound 598] reads 102 nM.
The result for `COc1ccc(C2=NOC3CC(C(C)(C)O)CC23)cc1C(=O)N[C@H]1[C@@H](C(=O)Nc2ccc(F)c(C(F)(F)F)c2)[C@H]2CC[C@@H]1/C2=C\C1CC1` (single isomer, unassigned) [compound 599] reads 104 nM.
The result for `COc1cc(C(=O)N[C@H]2[C@@H](C(=O)Nc3ccc(F)c(C(F)(F)F)c3)[C@H]3CC[C@@H]2/C3=C\C2CC2)cc(C2=NOC3COCC23)c1` (single isomer, unassigned) [compound 602] reads 110 nM.
As for `COc1ccc(C2=NOC(C3(O)CCC3)C2)cc1C(=O)N[C@H]1[C@@H](C(=O)Nc2ccc(F)c(C(F)(F)F)c2)[C@H]2CC[C@@H]1/C2=C\C1CC1` (single isomer, unassigned) [compound 603], the EC50 was 112 nM.
As to `COc1ccc(C2=NOC(C3(O)CCCCC3)C2)cc1C(=O)N[C@H]1[C@@H](C(=O)Nc2ccc(F)c(C(F)(F)F)c2)[C@H]2CC[C@@H]1/C2=C\C1CC1` (single isomer, unassigned) [compound 615], the EC50 worked out at 139 nM.
The result for `COc1ccc(C2=NOC3(CO)CCCC23)cc1C(=O)N[C@H]1[C@@H](C(=O)Nc2ccc(F)c(C(F)(F)F)c2)[C@H]2CC[C@@H]1/C2=C\C1CC1` (single isomer, unassigned) [compound 616] reads 141 nM; that for `COc1ccc(C2=NOC(C3(O)CCCC3)C2)cc1C(=O)N[C@H]1[C@@H](C(=O)Nc2ccc(F)c(C(F)(F)F)c2)[C@H]2CC[C@@H]1/C2=C\C1CC1` (single isomer, unassigned) [compound 619], 156 nM; that for `COc1ccc(C2=NOC3(CO)CCC23CO)cc1C(=O)N[C@H]1[C@@H](C(=O)Nc2ccc(F)c(C(F)(F)F)c2)[C@H]2CC[C@@H]1/C2=C\C1CC1` (single isomer, unassigned) [compound 623], 169 nM.
The result for `COCCOc1ccc(C2=NOC3COCC23)cc1C(=O)N[C@H]1[C@@H](C(=O)Nc2ccc(F)c(C(F)(F)F)c2)[C@H]2CC[C@@H]1/C2=C\C1CC1` (single isomer, unassigned) [compound 644] reads 238 nM.
The result for `O=C(N[C@H]1[C@@H](C(=O)Nc2ccc(F)c(C(F)(F)F)c2)[C@H]2CC[C@@H]1/C2=C\C1CC1)c1cccc(C2=NOC3COCC23)c1` (single isomer, unassigned) [compound 647] reads 241 nM.
`CCC(NC(=O)[C@@H]1[C@H](NC(=O)c2cc(C3=NOC4COCC34)ccc2OC)[C@@H]2CC[C@H]1/C2=C/C1CC1)c1ccccc1C` (single isomer, unassigned) [compound 652]: the EC50 came out at 278 nM.
The result for `Cc1ccc(C2=NOC3COCC23)cc1C(=O)N[C@H]1[C@@H](C(=O)Nc2ccc(F)c(C(F)(F)F)c2)[C@H]2CC[C@@H]1/C2=C\C1CC1` (single isomer, unassigned) [compound 654] reads 300 nM; that for `COc1ccc(C2=NO[C@@H]3CC[C@@H](O)[C@H]23)cc1C(=O)N[C@H]1[C@@H](C(=O)Nc2ccc(F)c(C(F)(F)F)c2)[C@H]2CC[C@@H]1/C2=C\C1CC1` (single isomer, unassigned) [compound 655], 303 nM; that for `CCC(NC(=O)[C@@H]1[C@H](NC(=O)c2cc(C3=NOC4COCC34)ccc2OC)[C@@H]2CC[C@H]1/C2=C/C1CC1)c1ccccc1C` (single isomer, unassigned) [compound 656], 311 nM.
As to `COc1ccc(C2=NOC(CO)C2CO)cc1C(=O)N[C@H]1[C@@H](C(=O)Nc2ccc(F)c(C(F)(F)F)c2)[C@H]2CC[C@@H]1/C2=C\C1CC1` (single isomer, unassigned) [compound 657], the EC50 was 312 nM.
The result for `COc1ccc(C2=NOC3CCCC23)cc1C(=O)N[C@H]1[C@@H](C(=O)Nc2ccc(F)c(C(F)(F)F)c2)[C@H]2CC[C@@H]1/C2=C\C1CC1` (single isomer, unassigned) [compound 662] reads 360 nM; that for `CN(C)c1c(Cl)cc(C2=NOC3COCC23)cc1C(=O)N[C@H]1[C@@H](C(=O)Nc2ccc(F)c(C(F)(F)F)c2)[C@H]2CC[C@@H]1/C2=C\C(F)(F)F` (single isomer, unassigned) [compound 670], 448 nM.
The result for `COc1ccc(C2=NOC3C(O)CC(O)C23)cc1C(=O)N[C@H]1[C@@H](C(=O)Nc2ccc(F)c(C(F)(F)F)c2)[C@H]2CC[C@@H]1/C2=C\C1CC1` (single isomer, unassigned) [compound 674] reads 481 nM; that for `O=C(N[C@H]1[C@@H](C(=O)Nc2ccc(F)c(C(F)(F)F)c2)[C@H]2CC[C@@H]1/C2=C\C1CC1)c1cc(C2=NOC3COCC23)ccc1F` (single isomer, unassigned) [compound 677], 501 nM; that for `COc1ccc(C2=NOC3COCC23)cc1C(=O)N[C@H]1[C@@H](C(=O)NC2CCOC(C)(C)C2)[C@H]2CC[C@@H]1/C2=C\C1CC1` (single isomer, unassigned) [compound 679], 563 nM.
The result for `COc1ccc(C2=NOC3C(O)CC(O)C23)cc1C(=O)N[C@H]1[C@@H](C(=O)Nc2ccc(F)c(C(F)(F)F)c2)[C@H]2CC[C@@H]1/C2=C\C1CC1` (single isomer, unassigned) [compound 680] reads 582 nM.
